The record followed here is patent US8586638B2, “Parakeratosis inhibitor and skin preparation for external use” (priority 2003, dated 2013).

Assay [1] relates to pores on the cheek of healthy male subjects. The assay is described as follows: Effect of shrinking human pores: replica evaluation of cheek pores. In kind it is in vivo. Particulars: for Replica Evaluation (mean of n = 5), difference of pore size score before/after application: Table 5, twice a day for a month, cheek, control 0.3; for effect of pore-shrinking (conclusion from Table 5): human cheek, fifth embodiment. The method, then: An experiment of application of sample twice a day for a month on the cheek of healthy male subjects, was conducted with each group consisting of 5 individuals. 3 weight % solution of the glycine derivatives in accordance with the invention 1 (including 15 weight % of ethanol) was prepared. pH was regulated to the range between 7.0 and 7.5, by using hydrochloric acid and/or sodium hydroxide. Control was 15 weight % ethanol solution. Said 3 weight % solution was applied to one side and said control solution was applied to the other side.
Replicas were prepared prior to and after the application to observe the change of form of pores in the same spot under a three-dimensional laser scanning microscope. The size of pores was evaluated visually 13 steps from 1 to 13 (larger number indicates larger pore size), and the difference between the resulted evaluations before/after the application experiment was then calculated to study the effectiveness of each specimen.
An experiment of application of sample twice a day for a month on the cheek of healthy male subjects, was conducted with each group consisting of 5 individuals. 3 weight % solution of the glycine derivatives and the salts thereof as well as the aminosulfuric acid derivatives and the salts thereof in accordance with the invention 2 (including 15 weight % of ethanol), 2 weight % solution of ACES (including 15 weight % of ethanol), 3 weight % solution of CAPS (including 15 weight % of ethanol), and 3 weight % solution of CAPSO (including 15 weight % of ethanol) were prepared. pH was regulated to the range between 7.0 and 7.5, by using hydrochloric acid and/or sodium hydroxide. 15 weight % ethanol solution was used as control. Said sample solutions was applied to one side, and said control solution was applied to the other side.

The subject of assay [2] is skin roughness caused by oleic acid on the back of hairless mice. The assay is described as follows: Inhibitory effect on skin roughness by the application of oleic acid (TEWL value). In kind it is in vivo, hairless mice (HR-1). The arrangement: ΔTEWL: unit not given here. Particulars: for decrease of delta-TEWL value as compared to the control solution (conclusion from Table 6): hairless mice, oleic acid, seventh embodiment; for ΔTEWL: after 10 weight % oleic acid, 3 days, four mice per group, control 12.0. The method, then: To study the inhibitory effect on the skin roughness by the application of oleic acid by the glycine derivatives and the salts thereof as well as the aminosulfuric acid derivatives and the salts thereof in accordance with the invention 2, the […] (TEWL value) before and after the application was measured to compare the difference therebetween with the value of control (control solution) in order to determine the effect. The preparation of samples and the application procedure were in accordance with the embodiment 4. The TEWL value was measured by means of TEWA meter TM210 (Courage+Khazaka Inc.).
100 microliters of 10 weight % oleic acid (solvent: ethanol) was applied to the back of hairless mice (HR-1, four in each group). Thereafter, 100 microliters of sample solutions (glycine derivatives and the salts thereof as well as the aminosulfuric acid derivatives and the salts thereof) in accordance with the invention 2 were applied at each time. This procedure was repeated for 3 days. The day after the application, TEWL value of the back of mice was measured and the values were averaged. The larger delta-TEWL value indicates severer aggravation of skin roughness.

The test system of assay [3] is parakeratosis and skin roughness caused by oleic acid on the back of hairless mice. The assay can be described thus: Parakeratosis inhibition effect test: oleic acid applied to the back of hairless mice, visual skin roughness and parakeratosis level. As to conditions: for Evaluation Parakeratosis (mean of 4 mice) / Evaluation Visual (mean of 4 mice), skin roughness: Table 4; for Evaluation Parakeratosis (mean of 4 mice): control 2.0; for Evaluation Visual (mean of 4 mice), skin roughness: score 0.0 no roughness, 2.0 control; for effect of inhibiting parakeratosis (conclusion from Table 4): hairless mice, oleic acid, fourth embodiment. The arrangement: key to Evaluation Visual (mean of 4 mice), skin roughness: 0.0 = no roughness, 2.0 = control application; 0.25 steps. Format: in vivo, hairless mice (HR-1). As to the method:
A 3 weight % water solution (including 30 weight % ethanol) was prepared as the evaluation specimen of the glycine derivatives in accordance with the invention 1. The pH was regulated to the range between 7.0 to 7.5, by using hydrochloric acid and sodium hydroxide. When the solubility was low, the solution was adjusted accordingly.
100 microliters of 10 weight % oleic acid (solvent: ethanol) was applied to the back of hairless mice (HR-1, Hoshino laboratory animals). Thereafter, 100 microliters of sample solution was applied (glycine derivatives in accordance with said invention 1) at each time. This procedure was repeated for 3 days. The day after the application, the skin condition of the backs was observed by using a CCD camera to evaluate the skin roughness (stratified ablation of the skin surface stratum corneum and red spots). The skin condition was evaluated visually, with scoring the skin condition of control application to 2.0 and the skin condition of no roughness to 0.0, in a 0.25 point step in response to the skin condition. At the same time, the skin surface stratum corneum of the back of hairless mice was peeled off by using a tape for staining the nucleus with haematoxylin to observe the degrees of parakeratosis (parakeratosis level) and evaluate in 0.25 step in the range from 1.0 to 3.0. The higher evaluation points indicates the larger number of parakeratotic corneocytes count, i.e., severer parakeratosis.
The samples to be evaluated of the glycine derivatives and the salts thereof as well as the aminosulfuric acid derivatives and the salts thereof in accordance with the invention 2 were prepared mainly 3 weight % solution (including 30 weight % ethanol, excluding Hydantoic acid and ACES which include 20 weight % ethanol). pH was regulated by using hydrochloric acid or sodium hydroxide to be 7.0 to 7.5. When the solubility was low, then the solution was prepared accordingly.
100 microliters of 10 weight % oleic acid (solvent: ethanol) was applied to the back of Hairless mice (HR-1, Hoshino laboratory animals) Thereafter, 100 microliters of sample solution (glycine derivatives in accordance with the invention 2) was applied thereon at each time. This procedure was repeated for 3 days. The day after the application, the skin condition of the backs was observed by using a CCD camera to evaluate the skin roughness (stratified ablation of the skin surface stratum corneum and red spots). The skin condition was evaluated visually, with scoring the skin condition of control application to 2.0 and the skin condition of no roughness to 0.0, in a 0.25 point step in response to the skin condition. At the same time, the skin surface stratum corneum of the back of hairless mice was peeled off by using a tape for staining the nucleus with haematoxylin to observe the degrees of parakeratosis and evaluate in 0.25 step in the range from 1.0 to 3.0. The higher evaluation points indicates the larger number of parakeratotic corneocytes count, i.e., severer parakeratosis.

[4] abbreviates: 3.0 weight % solution (15 weight % ethanol).
Where [5] appears, read: sample 3 weight %, larger = severer roughness.
Setting [6] is: sample 3 weight % in aqueous 30 weight % ethanol (hydantoic acid: 20 weight % ethanol), range 1.0 to 3.0, higher = severer.
Where [7] appears, read: sample 3 weight % in aqueous 30 weight % ethanol (hydantoic acid: 20 weight % ethanol).

Turning to `O=C(O)CNc1ccccc1` [N-phenylglycine], the “Replica Evaluation (mean of n = 5), difference of pore size score before/after application” value in assay [1] (setting [4]) is reported as −1.0. In assay [1], the “effect of pore-shrinking (conclusion from Table 5)” value (shortened to “effect of pore-shrinking”) is given as “demonstrated the effect of pore-shrinking”. Further, the “decrease of delta-TEWL value as compared to the control solution (conclusion from Table 6)” value (“decrease of delta-TEWL value” below) in assay [2] was “significant decrease of delta-TEWL value”. The ΔTEWL in assay [2] (setting [5]) stood at 7.9. Moreover, in assay [3] (setting [6]), the “Evaluation Parakeratosis (mean of 4 mice)” value (from here on “Evaluation Parakeratosis”) worked out at 1.2. Moreover, in assay [3] (setting [7]), the “Evaluation Visual (mean of 4 mice), skin roughness” value (shortened to “Evaluation Visual (mean of 4 mice)”) was found to be 1.3. The “effect of inhibiting parakeratosis (conclusion from Table 4)” value (from here on “effect of inhibiting parakeratosis”) in assay [3] is listed as “have the effect of inhibiting parakeratosis”.
Turning to `O=S(=O)(O)CC(O)CNC1CCCCC1` (centres unmarked) [CAPSO, 3-(cyclohexyl-amino)-2-hydroxy-propane-sulfonic acid], in assay [1] (setting [4]), the “Replica Evaluation (mean of n = 5), difference of pore size score before/after application” value is given as −1.6. The “effect of pore-shrinking” value in assay [1] was “demonstrated the effect of pore-shrinking”. For the same compound, in assay [2], the “decrease of delta-TEWL value” value is on record as “significant decrease of delta-TEWL value”. Besides, the ΔTEWL in assay [2] (setting [5]) is 7.9. For the same compound, the “Evaluation Parakeratosis” value in assay [3] (setting [6]) worked out at 1.1. The “Evaluation Visual (mean of 4 mice)” value in assay [3] (setting [7]) came out at 1.3. Besides, the “effect of inhibiting parakeratosis” value in assay [3] is “have the effect of inhibiting parakeratosis”.
Turning to `NC(=O)NCC(=O)O` [hydantoic acid], in assay [1] (setting [4]), the “Replica Evaluation (mean of n = 5), difference of pore size score before/after application” value is listed as −0.8. The “effect of pore-shrinking” value in assay [1] is on record as “demonstrated the effect of pore-shrinking”. For the same compound, the “decrease of delta-TEWL value” value in assay [2] is “significant decrease of delta-TEWL value”. Further, the ΔTEWL in assay [2] (setting [5]) is given as 8.0. Further, the “Evaluation Parakeratosis” value in assay [3] (setting [6]) amounted to 1.3. In assay [3] (setting [7]), the “Evaluation Visual (mean of 4 mice)” value turned out to be 1.4. The “effect of inhibiting parakeratosis” value in assay [3] is given as “have the effect of inhibiting parakeratosis”.
Turning to `NC(=O)CNCCS(=O)(=O)O` [ACES, N-(2-acetamide)-2-aminoethanesulfonic acid], the “Replica Evaluation (mean of n = 5), difference of pore size score before/after application” value in assay [1] (2.0 weight % solution (15 weight % ethanol)) was −1.5. The “effect of pore-shrinking” value in assay [1] is recorded as “demonstrated the effect of pore-shrinking”. Further, the “decrease of delta-TEWL value” value in assay [2] is “significant decrease of delta-TEWL value”. The ΔTEWL in assay [2] (sample 1 weight %) was found to be 6.9. In assay [3] (sample 1 weight % in aqueous 30 weight % ethanol (ACES: 20 weight % ethanol), range 1.0 to 3.0), the “Evaluation Parakeratosis” value was determined as 1.2. The “Evaluation Visual (mean of 4 mice)” value in assay [3] (sample 1 weight % in aqueous 30 weight % ethanol (ACES: 20 weight % ethanol)) came out at 1.4. In addition, in assay [3], the “effect of inhibiting parakeratosis” value was “have the effect of inhibiting parakeratosis”.
In the case of `O=S(=O)(O)CCCNC1CCCCC1` [CAPS, 3-(cyclohexyl-amino)propane sulfonic acid], in assay [1] (setting [4]), the “Replica Evaluation (mean of n = 5), difference of pore size score before/after application” value was −1.4. Further, the “effect of pore-shrinking” value in assay [1] is recorded as “demonstrated the effect of pore-shrinking”. The “decrease of delta-TEWL value” value in assay [2] is recorded as “significant decrease of delta-TEWL value”. The ΔTEWL in assay [2] (setting [5]) worked out at 8.1. Besides, the “Evaluation Parakeratosis” value in assay [3] (setting [6]) was determined as 1.2. For the same compound, in assay [3] (setting [7]), the “Evaluation Visual (mean of 4 mice)” value is 1.3. The “effect of inhibiting parakeratosis” value in assay [3] is recorded as “have the effect of inhibiting parakeratosis”.
